In ChEMBL document CHEMBL4190165 (Medchemcomm, 2016):

What was measured:
[1] = Inhibition of Saccharomyces cerevisiae PP30 HSP82 expressed in Escherichia coli BL21(DE3)pLysS by PK/LDH coupled spectrophotometric assay
[2] = Binding affinity to yeast Hsp90 by isothermal titration calorimetric method; parameters: species or system Saccharomyces cerevisiae

IC50 [1] | Kd [2] | Structure (SMILES)
1000 to 5000 nM | 1200 nM | COC1=C2C[C@@H](C)C[C@H](OC)[C@H](O)[C@@H](C)/C=C(\C)[C@H](OC(N)=O)[C@@H](OC)/C=C\C=C(/C)C(=O)NC(=CC1=O)C2=O [GELDANAMYCIN]
20 to 23 nM | 19 nM | C[C@@H]1C[C@H]2O[C@@H]2/C=C\C=C\C(=O)Cc2c(Cl)c(O)cc(O)c2C(=O)O1 [RADICICOL]
